According to PMC5193436 (PLoS ONE, 2016):

Target: T1, Enolase 1 (αEnolase) (Homo sapiens, UniProt P06733)
T1 construct: gene ENO1; recombinant ENO1
Experiment: direct spectrophotometric PEP assay ([…] nm) with purified recombinant ENO1; NADH-coupled assay in lysates
Type: biochemical

T1 sequence (P06733 2-434): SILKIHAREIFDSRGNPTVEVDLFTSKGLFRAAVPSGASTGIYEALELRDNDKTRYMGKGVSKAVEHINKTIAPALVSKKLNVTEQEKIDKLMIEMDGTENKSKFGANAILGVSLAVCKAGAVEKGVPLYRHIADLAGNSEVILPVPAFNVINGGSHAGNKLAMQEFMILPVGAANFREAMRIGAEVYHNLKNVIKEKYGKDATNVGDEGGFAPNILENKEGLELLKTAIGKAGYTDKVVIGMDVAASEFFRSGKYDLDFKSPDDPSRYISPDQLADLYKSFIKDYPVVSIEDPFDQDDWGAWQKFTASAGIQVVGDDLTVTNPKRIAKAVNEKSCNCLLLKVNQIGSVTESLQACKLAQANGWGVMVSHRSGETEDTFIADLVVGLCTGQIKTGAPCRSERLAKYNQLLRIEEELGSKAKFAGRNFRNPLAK

O=C1C(P(=O)(O)O)CC(O)N1O (stereo not shown) [SF2312, 3-dihydroxyphosphoryl-1,5-dihydroxy-2-pyrrolidone]
direct spectrophotometric PEP assay (240 nm) with purified recombinant ENO1; NAD: SF2312 (c) on Enolase activity in purified recombinant ENO1 and ENO2 was determined using the direct PEP-detection assay
